# Measurements reported in US20090162351A1, “Transdiscal administration of inhibitors of p38 MAP kinase” (DePuy Spine, Inc., priority 2007, published 2009).
# Like-named read-outs stand apart in the source and are kept apart here.
# Experiments:
# [1] = system: human ARC tissues (human chondrocytes) stimulated with TNFα, IL-1β or IL-6 + IL-6SR; experiment: Human ARC tissues: GAG release; format: cell-based
# Procedure: Glycosaminoglycan (GAG) levels in the culture media were determined by measuring the amount of polyanionic material reacting with 1,9-dimethylmethylene blue (DME) as detected by absorbance at 525 nm, using shark chondroitin sulfate as a standard. The DME blue dye-binding solution was prepared by dissolving 16 mg of DME blue in a solution containing 0.304% glycine, 0.23% sodium chloride (NaCl), 9.5 mM hydrochloric acid (HCl), pH=3.0 with absorbance at 525 equal to 0.31. Proteoglycans and proteoglycan metabolites in chondrocyte pellet were released by digesting the pellet with 125 μg/ml of papain in 0.1 M PBS, pH 6.0, 5 mM cysteine, 5 mM ethylene-diamine-tetra-acetic acid disodium salt (Na2EDTA) at 50° C. for overnight. Results are reported as either micrograms of GAG per milliliter or percent of total GAG released into culture medium.
# (§1) ® infliximab is a monoclonal antibody against human TNFα. To test whether […]® could modulate cytokine-stimulated responses in chondrocytes, human chondrocyte pellets were first tested for an optimal concentration for cytokine stimulation. Human ARC (i.e., ARCs generated using human chondrocytes) tissues were treated with various concentrations of either TNF or IL-1 for four and five days. The culture media was collected for measurement of GAG content as described above. Other assays were performed as described above. Cytokine dosage at 5 ng/ml and treatment for five days gave a reasonable treatment window, yet was not too challenging for compound efficacy (FIG. 4).
# (§2) Human ARC tissues were then treated with various concentrations of […]® in the presence or absence of either 10 ng/ml of TNFα or 5 ng/ml of IL-1β for four or five days.
# The efficacy of a monoclonal antibody (mAb) against human IL-6 in inhibition of proteoglycan degradation, NO production and PGE2 synthesis on human ARC tissues stimulated with IL-6 was also tested. Human ARC tissue were treated with 12.5, 25 and 250 ng/ml of IL-6 mAb diluted into chondrocyte stimulation medium. […]
# [2] = system: cytokine-stimulated PGE2 synthesis in human ARC tissues; experiment: Human ARC tissues: PGE2 synthesis; format: cell-based; conditions: for PGE2 Inhibition, Pellet Assay: TNFα stimulated responses
# Procedure: (§3) Prostaglandin E2 (PGE2) was measured with a STAT-Prostaglandin E2 EIA ELISA kit (Cayman Biochemicals). This assay is based on the competition between PGE2 from 50 μl samples and a PGE2-alkaline phosphatase conjugate for a limited amount of PGE2 monoclonal antibody in a reaction volume of 150 μl at room temperature for one hour. The antibody-PGE2 complex bound to a goat polyclonal anti-mouse IgG that had been previously attached to the well. After washing to remove any unbound reagents, para-nitrophenyl phosphate (pNPP) was added to the well. The product of this enzymatic reaction absorbs strongly at 412 nm. Because of the large range in response to IL-1β and other cytokines, PGE2 values were converted to log scale prior to doing t-tests.
# as §1, §2
# The efficacy of a monoclonal antibody (mAb) against human IL-6 in inhibition of proteoglycan degradation, NO production and PGE2 synthesis on human ARC tissues stimulated with IL-6 was also tested. Human ARC tissue were treated with 12.5, 25 and 250 ng/ml of IL-6 mAb diluted into chondrocyte stimulation medium. After one hour of treatment at 37° C., ARCs were stimulated with or without 25 ng/ml IL-6, 250 ng/ml IL-6 soluble receptor (IL-6SR) or IL-6 (25 ng/ml)+L-6SR (250 ng/ml) and incubated for five days before the culture media were harvested for assays.
# [3] = system: cytokine-stimulated NO production in human ARC tissues; experiment: Human ARC tissues: NO production; format: cell-based
# Procedure: (§4) Nitrate/Nitrite levels were measured using the Griess reaction (Green L. C. et al., “Analysis of Nitrate, Nitrite, and [15N]nitrate in Biological Fluids,” Anal. Biochem. 126: 131-138 (1982)) with a Nitrate/Nitrite Colorimetric Assay Kit (Cayman Chemicals), the contents of which are incorporated herein by reference. The assay involved a simple two-step process. The first step involved conversion of nitrate in 50 μl of culture medium to nitrite utilizing nitrate reductase in a reaction volume of 100 μl at room temperature for two hours. The second step involved the addition of 50 μl of both Griess Reagent 1 and 2, which converted nitrite into a deep purple azo compound in ten minutes. Photometric measurement of the absorbance at 540 or 550 nm due to this azo chromophore accurately determined nitrite concentration. This assay kit cannot be used for RPMI (Roswell Park Memorial Institute) derived tissue culture medium due to interference with the colorimetric reaction.
# as §1, §2
# The efficacy of a monoclonal antibody (mAb) against human IL-6 in inhibition of proteoglycan degradation, NO production and PGE2 synthesis on human ARC tissues stimulated with IL-6 was also tested. […]
# [4] = in vivo; cited from earlier work
# [5] = system: bovine chondrocyte pellets / ARC tissues stimulated with IL-1β; experiment: Chondrocyte pellet / ARC culture model: GAG degradation assay; format: cell-based; conditions: Bos taurus, Chondrocyte; at 5 μM; read-out: GAG Release (inhibition), Pellet Assay
# Source text: A chondrocyte pellet culture model was developed for in vitro high throughput screening of therapeutic compounds for inhibition of IL-1β-stimulated matrix degradation. The chondrocyte pellet culture model can be used to detect various potential therapeutic compounds effective in blocking different processes caused by IL-1β stimulation. For example, IL-1β stimulation results in increased glycosaminoglycan (GAG) degradation, prostaglandin E2 (PGE2) synthesis and total nitrite/nitrate production. Compounds with different mechanisms of action may inhibit the increase of one or two or all three of these parameters. For this reason, screening by, for example, measuring only GAG release would be limited to detection of a specific class of inhibitors and may not detect compounds with diversified mechanisms of function which may be involved in inhibition of the IL-1 stimulated inflammatory process. The development of the chondrocyte pellet culture assay system in a 96-well plate made possible large-scale screening of potential therapeutic compounds with different mechanisms of action.
# (§5) Calf articular cartilage was obtained from the knee joints of eight to twelve month old animals and was processed within twenty-four hours after sacrifice. After removal of muscle and ligament, the cartilage was kept moist using phosphate buffer solution (PBS) to prevent tissue dehydration, and was aseptically peeled off from subchondral bone with a scalpel, and the cartilage pieces were further minced into smaller pieces (˜0.3-0.5×˜0.2-0.5 cm cubes). […] Chondrocytes were then enzymatically isolated from the tissue by incubation for overnight at 37° C. with gentle agitation in 0.2% collagenase in Dulbecco's modified eagle media (DMEM). After removal of tissue debris by filtration through cell strainer and the residual collagenase by 3× wash in PBS, cells were finally resuspended at a density of 2.5×10^6 cells/ml in chondrocyte medium. A 1 ml aliquot of the cell suspension was dispensed into either a 15 ml Falcon centrifuge tube or a 96 deep-well plate and centrifuged at 2000×g for five minutes. The chondrocyte pellets were incubated at 37° C. in a humidified atmosphere of 5% CO2 for two to three weeks with a medium change every other day.
# (§6) As an alternative to using calf articular cartilage, a commercial Aliginate Recovered Chondrocytes (ARC) system was also used (Articular Engineering, LLC (Northbrook, Ill.)). Use of the commercial system cut down on labor and time in producing chondrocyte pellet. This system produced cartilaginous tissue in vitro using bovine chondrocytes. The first step consisted of culturing chondrocytes in alginate under conditions optimal for the formation of a cell-associated matrix (CM). The second step allowed these cells with their CM, after recovery, to rapidly form and become integrated into a solid mass of cartilage on a porous insert within two weeks.
# This tissue is rich in cells surrounded by a cell-associated matrix that is degraded rapidly when the cells are exposed to IL-1. ARC tissues in 3 mm punches at delivery were first dispensed into a 96 deep-well plate, one punch per well, for compound treatment. The subsequent procedures were the same as those used for the chondrocyte pellets.
# (§7) Chondrocyte pellets were washed once with 1 ml of Chondrocyte Stimulation Medium and equilibrated in the same medium at room temperature for fifteen to thirty minutes. Compounds were dissolved in H2O, Ethanol or dimethyl sulfoxide (DMSO) (10^−2 M) according to suppliers' instructions and further diluted with Chondrocyte Stimulation Medium to the required concentrations. DMSO concentrations in the culture media should not exceed 1%; this concentration of DMSO has no effect on cartilage proteoglycan metabolism in response to cytokines.
# The pellets were first treated with compounds at desired concentrations at 37° C. for one hour and then incubated for three to five days in the absence or presence of 10 ng/ml of IL-1β. […]
# [6] = system: IL-1β-stimulated PGE2 synthesis in bovine chondrocyte pellets / ARC tissues; experiment: Chondrocyte pellet / ARC culture model: Prostaglandin E2 assay; format: cell-based
# Source text: as §5, §6, §7
# (§8) The pellets were first treated with compounds at desired concentrations at 37° C. for one hour and then incubated for three to five days in the absence or presence of 10 ng/ml of IL-1β. At the end of the incubation, media and pellets were harvested and frozen for further analysis. Pellets were also fixed as needed in 4% (w/v) paraformaldehyde in PBS for histology analysis.
# as §3
# To characterize the relative efficacies among different p38 MAP kinase inhibitors, dose-response curves were generated for both PGE2 and NO assays. […] After one hour of treatment, ARCs were stimulated with or without 7.5 ng/ml IL-1β and continued to incubate for five days before assay. The IL-1β-stimulated PGE2 synthesis or NO production was first calculated by subtraction of PGE2/NO levels in the absence of IL-1β from that in the presence of IL-1β. […]
# [7] = system: IL-1β-stimulated NO production in bovine chondrocyte pellets / ARC tissues; experiment: Chondrocyte pellet / ARC culture model: total nitrite and nitrate assay; format: cell-based; conditions: at 5 μM
# Source text: as §5, §6, §7, §8, §4
# To characterize the relative efficacies among different p38 MAP kinase inhibitors, dose-response curves were generated for both PGE2 and NO assays. […] After one hour of treatment, ARCs were stimulated with or without 7.5 ng/ml IL-1β and continued to incubate for five days before assay. […]
# [8] = system: chondrocytes; format: cell-based
# Procedure: The LDH activity was determined calorimetrically in an enzymatic test based on the conversion of lactic acid to pyruvate in the presence of chromagenic substrate tetrazolium salt INT that was reduced to formazan.
# [9] = Water solubility; format: physicochemical
# [10] = target: CDK1 (Homo sapiens, UniProt P06493); experiment: CDK1 inhibition; format: biochemical
# [11] = system: human cancer cell lines; experiment: Cell proliferation in culture; format: cell-based
# [12] = system: human tumor xenograft models; experiment: Human tumor xenograft models; format: in vivo; conditions: single agent
# [13] = system: bovine chondrocyte pellets / ARC tissues stimulated with IL-1β; experiment: Chondrocyte pellet / ARC culture model: GAG degradation assay; format: cell-based; conditions: at 5 μM, 7.5 ng/ml IL-1, five days
# [14] = system: annulus fibrosus and nucleus pulposus cells from bovine caudal discs treated with IL-1β; experiment: 3D in vitro disc cell model: GAG (DMMB); format: cell-based; conditions: 10 ng/ml IL-1β; inhibitor 1 μM, rhGDF-5 200 ng/ml
# Source text: (§9) Three-dimensional in vitro annulus fibrosis (AF) and nucleus pulposus (NP) models were established to investigate proteoglycan modulation and changes in gene expression in response to inflammatory cytokines such as interleukin-1 (e.g., IL-1β) and potential therapeutic agents such as growth and differentiation factor (GDF-5), and p38 MAP kinase inhibitors. AF and NP cells from bovine caudal discs were isolated by enzymatic digestion and seeded (2×10^6 cells/cm^2) onto Millipore CM filters coated with Collagen Type II and cultured in DMEM/20% heat-inactivated FBS, 100 ug/ml ascorbic acid and 5 ng/ml TGFβ1. […] Results were evaluated by histology (Tol. Blue staining was used to observe matrix production). Dimethylmethylene blue (DMMB) was used to detect sulphated glycosaminoglycans in a GAG/DNA assay. Taqman analysis was performed on aggrecans (AGG), collagen type 1 (col-1), collagen type 2 (col-2), and MMP 3, MMP 9 and MMP 13. In FIGS. 19A-C and 20A-C, annulus fibrosus and nucleus pulposus cells from bovine caudal discs were isolated by enzymatic digestion and seeded (2×10^6 cells/cm2) onto Millipore CM filters coated with Collagen Type II and cultured in DMEM/20% heat-inactivated FBS/100 ug/ml ascorbic acid and 5 ng/ml TGF-β1.
# [15] = system: aggrecan and collagen type 2 mRNA in bovine AF and NP cells; experiment: 3D in vitro disc cell model: Taqman gene expression; format: cell-based; conditions: 10 ng/ml IL-1β; inhibitor 1 μM, rhGDF-5 200 ng/ml
# Source text: as §9
# [16] = 10 ng/ml TNFα, four or five days
# [17] = at 1 ng/ml, TNFα stimulated responses
# Chain of CDK1 (P06493 whole entry, species assumed): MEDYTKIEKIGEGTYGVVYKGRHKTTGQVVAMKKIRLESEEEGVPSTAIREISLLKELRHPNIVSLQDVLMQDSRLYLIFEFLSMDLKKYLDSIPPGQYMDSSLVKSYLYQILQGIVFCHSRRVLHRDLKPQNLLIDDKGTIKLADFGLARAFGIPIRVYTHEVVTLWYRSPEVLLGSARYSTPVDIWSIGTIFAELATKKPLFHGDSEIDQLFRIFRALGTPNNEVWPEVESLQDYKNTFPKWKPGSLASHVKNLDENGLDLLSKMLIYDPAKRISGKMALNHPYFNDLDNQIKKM
# Chain of CDK1 (P14635 whole entry partner, species assumed): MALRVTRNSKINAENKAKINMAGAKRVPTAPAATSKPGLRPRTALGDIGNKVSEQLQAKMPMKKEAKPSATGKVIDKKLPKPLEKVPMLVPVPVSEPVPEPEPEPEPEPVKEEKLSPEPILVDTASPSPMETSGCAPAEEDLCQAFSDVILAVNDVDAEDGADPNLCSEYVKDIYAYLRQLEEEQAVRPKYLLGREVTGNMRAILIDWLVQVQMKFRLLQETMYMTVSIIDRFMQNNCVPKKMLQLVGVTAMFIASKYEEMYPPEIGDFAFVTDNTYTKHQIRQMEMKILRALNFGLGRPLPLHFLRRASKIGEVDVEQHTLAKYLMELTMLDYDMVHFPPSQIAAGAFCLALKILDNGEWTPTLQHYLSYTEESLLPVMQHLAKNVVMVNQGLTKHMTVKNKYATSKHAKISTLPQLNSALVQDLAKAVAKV
molecule,measurement,setting,value
REMICADE®: monoclonal antibody against human TNFα,IL-1β stimulated responses: GAG release (in words),[1]; 5 ng/ml IL-1β,little effect
same,TNFα-induced GAG release (in words),[1]; [16],strongly inhibited
same,"GAG Release (inhibition), Pellet Assay",[1]; [17],100% at 1 ng/ml
same,IL-1β stimulated responses: PGE2 synthesis (in words),[2]; 5 ng/ml IL-1β,little effect
same,TNFα-induced PGE2 synthesis (in words),[2]; [16],strongly inhibited
same,"PGE2 Inhibition, Pellet Assay",[2]; at 1 ng/ml,50% at 1 ng/ml
same,"PGE2 Inhibition, Pellet Assay",[2]; at 10 ng/ml,100% at
same,IL-1β stimulated responses: NO production (in words),[3]; 5 ng/ml IL-1β,little effect
same,TNFα-induced NO production (in words),[3]; [16],strongly inhibited
same,"NO Inhibition, Pellet Assay",[3]; [17],100% at
same,half-life when administered systemically,[4],about 1 week
"Nc1nc(Nc2ccc(S(N)(=O)=O)cc2)nn1C(=O)c1c(F)cccc1F [JNJ 7706621, 4-[5-Amino-1-(2,6-difluoro-benzoyl)-1H-[1,2,4]triazol-3-ylamino]-benzenesulfonamide]",inhibition at 5 µM,[5],100%
same,"PGE2 Inhibition, Pellet Assay (in words)",[6]; Table 3B,No effect
same,PGE2 synthesis (in words),"[6]; at 5 μM, ARC tissues, 7.5 ng/ml IL-1, five days",little effect
same,inhibition at 5 µM,"[7]; Bos taurus, Chondrocyte",100%
same,NO production (in words),"[7]; ARC tissues, 7.5 ng/ml IL-1, five days",completely blocked
same,"cytotoxicity to chondrocytes, LDH (in words)",[8],little toxicity
same,solubility,[9]; at pH 7.4,17 µg/mL
same,solubility,"[9]; water, simulated gastric fluid, at pH 2, read-out: solubility",6 µg/mL
same,IC50,[10],9 nM
same,cell cycle effects (in words),[11],"induced G2M arrest, endoreduplication and apoptosis"
same,IC50,"[11]; Homo sapiens, in 9 cell lines, read-out: inhibits cell proliferation in culture, IC50",337 ± 123 nM
same,antitumor activity (in words),[12],single agent antitumor activity
same,GAG release (in words),[13],completely blocked
"rhGDF-5: growth and differentiation factor, member of the BMP family and TGF-beta superfamily (protein, UniProt P43026 382-501, looked up) Growth/differentiation factor …: APLATRQGKRPSKNLKARCSRKALHVNFKDMGWDDWIIAPLEYEAFHCEGLCEFPLRSHLEPTNHAVIQTLMNSMDPESTPPTCCVPTRLSPISILFIDSANNVVYKQYEDMVVESCGCR",amount of GAG in the tissue (in words),[14],restored
same,gene expression of Agg and Col 2 (in words),[15],restored
